{"source": "patent US10136642B2", "about": "“Composition of peracetic acid and at least one organic fungicide for the control and/or the treatment of diseases associated with the presence of pathogens, and method, use and kit involving said composition” (priority 2015, dated 2018)", "key": {"Erwinia amylovora": {"tested_on": "Erwinia amylovora", "assay": "Example 5 in vitro agar well inhibition of Erwinia amylovora", "type": "cell-based", "details": "LBA plates, 25° C., 72 hours; for bacterial inhibition zone (diameter): 1 cm center well", "experimental": "Virgin Luria-Bertani agar (LBA) plates were inoculated in triplicate each with 1 mL of concentrated Erwinia amylovora suspension by aseptically spreading the bacteria uniformly onto the agar surfaces. A center well 1 cm in diameter was punched into the agar of each plate. Test products were added dropwise into each of these center wells until the liquid level just reached the agar surface (normally 5-7 drops were required). Plates were incubated at 25° C. for 72 hours then observed for evidence of bacterial growth inhibition.\nTreatment List • 1. NEO-BOOST at 3.6 g/L. • 2. FireLine® [oxytetracycline hydrochloride 17% w/w] at 1.2 g/L • 3. FireWall® [streptomycin sulfate 17% w/w] at 0.6 g/L • 4. FireLine® at 1.2 g/L+FireWall® at 0.6 g/L • 5. NEO-BOOST at 3.6 g/L+FireLine® at 1.2 g/L • 6. NEO-BOOST at 3.6 g/L+FireWall® at 0.6 g/L • 7. NEO-BOOST at 3.6 g/L+FireLine® at 1.2 g/L+FireWall® at 0.6 g/L 8. Water."}, "[1]": {"assay": "Example 4 HPLC compatibility: degradation of azoxystrobin by NEO-BOOST 18/18", "type": "physicochemical", "details": "NEO-BOOST 18/18 at 3.6 g/L combined with 0.5 g/L azoxystrobin as Quadris", "experimental": "NEO-BOOST 18/18 at 3.6 g/L was combined with 0.5 g/L azoxystrobin in the form of Quadris®. In addition, several controls were prepared consisting of respectively: 0.5 g/L azoxystrobin in the form of Quadris®, and NEO-BOOST 18/18 at 3.6 g/L. All of the above were then converted or rendered into a form that could be analyzed by high-performance liquid chromatography (HPLC). The HPLC column was first calibrated with the reference standard azoxystrobin and then the samples were injected into the column at predetermined intervals to see whether the Quadris® was degraded at all by the NEO-BOOST 18/18."}, "[2]": {"assay": "Example 8 amount of peracetic acid in solution over time (NEO-PURE Liquid with/without Quadris)", "type": "physicochemical", "details": "diluted NEO-PURE Liquid", "excerpt": "Another liquid organic formulation based on pre-formed peracetic acid, called NEO-PURE™ Liquid, was formulated to study its compatibility with single-site fungicides such as azoles and strobilurins.\nThe above formulation contains a minimum of 5% w/w active peracetic acid and 20% w/w hydrogen peroxide."}}, "note": "Structures can show the parent of a compound that is named as a salt.", "data": [{"smiles": "[H]/N=C(/N)N[C@H]1[C@H](O)[C@@H](O)[C@H](O[C@@H]2O[C@@H](C)[C@](O)(C=O)[C@H]2O[C@@H]2O[C@@H](CO)[C@H](O)[C@@H](O)[C@@H]2NC)[C@@H](N/C(N)=N\\[H])[C@@H]1O", "note": "[streptomycin, streptomycin sulfate]", "values": [{"measurement": "bacterial inhibition zone (diameter)", "setting": "Erwinia amylovora", "value": "about 3 cm"}, {"measurement": "depth of inhibition through the bacterial lawn to the agar surface", "setting": "Erwinia amylovora", "value": "penetrated all the way down to the agar surface"}]}, {"smiles": "CN(C)[C@@H]1C(=O)C(C(N)=O)=C(O)[C@@]2(O)C(=O)C3=C(O)c4c(O)cccc4[C@@](C)(O)[C@H]3[C@H](O)[C@@H]12.Cl", "note": "[Oxytetracycline, oxytetracycline hydrochloride]", "values": [{"measurement": "bacterial inhibition zone (diameter)", "setting": "Erwinia amylovora", "value": "about 3 cm"}, {"measurement": "depth of inhibition through the bacterial lawn to the agar surface", "setting": "Erwinia amylovora", "value": "penetrated all the way down to the agar surface"}]}, {"smiles": "CO/C=C(/C(=O)OC)c1ccccc1Oc1cc(Oc2ccccc2C#N)ncn1", "note": "[azoxystrobin, methyl (E)-2-{2-[6-(2-cyanophenoxy)pyrimidin-4-yloxy]phenyl}-3-methoxyacrylate]", "values": [{"measurement": "degradation of azoxystrobin by NEO-BOOST (HPLC)", "setting": "[1]", "value": "did not degrade azoxystrobin at all"}, {"measurement": "decomposition of peracetic acid by the presence of azoxystrobin over time", "setting": "[2]", "value": "not decomposed"}]}]}
